According to patent US7652027B2, “Phenanthroindolizidine alkaloids” (National Health Research Institutes, priority 2005, dated 2010):

What was measured:
[1] = system: HONE-1 (nasopharyngeal carcinoma); experiment: Carcinoma cell growth inhibition (MTS assay), HONE-1; assay type: cell-based; details: 72 h
Procedure: (§1) Two cancer cell lines, HONE-1 (nasopharyngeal carcinoma) and NUGC-3 (gastric cancer), were maintained in DMEM medium containing 10% fetal bovine serum, seeded in 96-well plates (4500 and 6000 cells/well, respectively), and incubated under CO2 at 37° C. for 24 h. The cells were treated with at least five different concentrations of test compounds in a CO2 incubator for 72 h. The number of viable cells was estimated using the tetrazolium dye reduction assay (MTS assay) according to the protocol provided by the manufacturer (Promega, Madison, Wis., USA). The absorbance was measured at 490 nm on a Wallac 1420 VICTOR2 Multilabel counter (Perkin-Elmer, Boston, Mass.). The results of these assays were used to obtain the dose-response curves from which IC50 (nM) values were determined (an IC50 value represents the concentration (nM) of the test compound at which it produces a 50% cell growth inhibition after 3 days of incubation).

NUGC-3 (gastric cancer) = experiment: Carcinoma cell growth inhibition (MTS assay), NUGC-3; assay type: cell-based; details: 72 h
Procedure: as §1

iNOS promoter = experiment: iNOS promoter-luciferase reporter assay in LPS/IFNγ-treated RAW 264.7 (or A549) cells; assay type: cell-based, murine or human; details: 10 μM compound; 5 μg/ml LPS, 20 ng/ml IFNγ; 18-20 h
Procedure: RAW 264.7 cells (or A549 cells) were seeded in 24-well plates (9×10^4 cells/well) and grown overnight in sodium pyruvate-free DMEM with 4 mM glutamine containing 1% non-essential amino acids (Biological Industries, Israel) with antibiotics and 10% heat-inactivated fetal bovine serum or 10% fetal calf serum (Biological Industries, Israel). The cells were then co-transfected with murine or human iNOS or murine COX-II promoter-luciferase reporter plasmids (100 ng/well) and pCMV-β-gal (100 ng/well) using FuGene6 (Roche, Germany) following the protocol provided by the manufacturer. Murine iNOS promoter luciferase plasmids, human iNOS promoter-luciferase reporter plasmids (pGL3-8296), and murine COX-II promoter-luciferase reporter plasmids were generously provided by Drs. Charles J. Lowenstein (John Hopkines University), Joel Moss (National Institute of Health), and Yu-Chih Liang (Taipei Medical University), respectively. […]
The luciferase and β-galactosidase assays were performed using a STEADY-GLO luciferase assay system (Promega) and Galacto-Star assay system (Tropix) according to the manufacturer's instructions. Luminescence was measured in a TOPCOUNT.NXT™ Microplate Scintillation and Luminescence Counter (Packard Inc.). […]

AP1 = experiment: pAP 1-Luc luciferase reporter assay in LPS/IFNγ-treated RAW 264.7 (or A549) cells; assay type: cell-based; details: at the concentration higher than 1 μM; LPS (10 μg/ml)/IFNγ (20 ng/ml), 5 h
Procedure: (§2) The luciferase and β-galactosidase assays were performed using a STEADY-GLO luciferase assay system (Promega) and Galacto-Star assay system (Tropix) according to the manufacturer's instructions. Luminescence was measured in a TOPCOUNT.NXT™ Microplate Scintillation and Luminescence Counter (Packard Inc.). The results were normalized to β-galactosidase activity derived from co-transfected LacZ gene under the control of a constitutive promoter.
(§3) RAW 264.7 cells (or A549 cells) were seeded in 24-well plates (10^6 cells/well) 4-6 h before they were transfected with pNF-κB-Luc (Stratagene Corp., Calif.) (100 ng/well) and pCMV-β-gal (100 ng/well), or pAP 1-Luc (Stratagene Corp., Calif.) (200 ng/well) alone. The transfected cells were incubated for 24 h and then washed with the culture medium twice. After 18 h of incubation, the cells were treated with LPS (10 μg/ml)/IFNγ (20 ng/ml) and Compound 2 (final concentration: 0.3, 1, 3, or 10 μM) for 5 h. The cells were subjected to the luciferase and β-galactosidase assays.

NF-κB [2] = experiment: pNF-κB-Luc luciferase reporter assay in LPS/IFNγ-treated RAW 264.7 (or A549) cells; assay type: cell-based
Procedure: as §2, §3

AP 1 = experiment: pAP 1-Luc reporter assay in RAW264.7 cells co-transfected with pFC-MEKK; assay type: cell-based; details: at the concentration of 3 μM or higher; cells treated with LPS/IFNγ
Procedure: as §3
(§4) In a similar manner, RAW264.7 cells were transfected with pNF-κB-Luc plasmids (100 ng/well) or pAP 1-Luc (100 ng/well) as well as pFC-MEKK (Stratagene Corp., Calif.) (50 ng/well) and/or pCMV-β-gal plasmids (100 ng/well) and the transfected cells were subjected to the luciferase and β-galactosidase assays.

NF-κB [3] = experiment: pNF-κB-Luc reporter assay in RAW264.7 cells co-transfected with pFC-MEKK; assay type: cell-based; details: at the concentration of 3 μM or higher; cells treated with LPS/IFNγ
Procedure: as §3, §4

MEKK1 = target: T1, MEKK1 (Mus musculus, UniProt P53349); experiment: MEKK1 inhibition inferred from reporter assays in MEKK1 over-expressing RAW264.7 cells; assay type: cell-based; details: suggested by the reporter results in MEKK1 over-expressing cells
T1 construct: host or cells: RAW264.7
T1 sequence (P53349 1201-1493 limits assumed): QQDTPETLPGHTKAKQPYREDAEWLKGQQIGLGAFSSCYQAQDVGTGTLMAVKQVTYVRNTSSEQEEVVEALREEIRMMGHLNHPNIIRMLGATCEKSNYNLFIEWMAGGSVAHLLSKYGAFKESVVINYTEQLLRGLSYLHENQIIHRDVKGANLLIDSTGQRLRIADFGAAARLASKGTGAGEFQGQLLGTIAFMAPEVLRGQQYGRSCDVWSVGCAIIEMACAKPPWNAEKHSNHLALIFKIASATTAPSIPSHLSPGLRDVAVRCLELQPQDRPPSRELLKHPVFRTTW
Procedure: as §4

Akt = experiment: Phosphorylation of Akt in LPS/IFNγ-treated RAW264.7 cells; assay type: cell-based
ATF-2 = experiment: Phosphorylation of ATF-2 in LPS/IFNγ-treated RAW264.7 cells; assay type: cell-based
c-Jun = experiment: Expression of c-Jun in LPS/IFNγ-treated RAW264.7 cells; assay type: cell-based
TNF α = TNF α protein ELISA in cell culture supernatants; assay type: cell-based
Procedure: RAW 264.7 cells were seeded (70,000 cells/well) and cultured in 96-well culture plate. After 24 h incubation, the medium was replaced with one containing LPS (5 ug/ml)/IFNγ (20 ng/ml) and each of Compounds 1-4 (final concentration: 3, 5, or 6 μM) was added at different concentrations. After 18-24 h, the supernatants were subjected to the measurement of nitric oxide production using the Nitrate/Nitrite assay kit (Cayman Chemical). Nitric oxide levels were measured as the accumulation of nitrite and nitrate in the incubation medium. Nitrate was reduced to nitrite with nitrate reductase and determined spectrophotometrically with the Griess reagent at OD405. The attached cells were subjected to cytotoxicity measurement using the MTS assay.
An ELISA kit (R & D Systems Inc., USA) was used to measure TNF α protein in cell culture supernatants using according to the manufacturer's instructions.

iNOS = iNOS level by immunoblotting; assay type: cell-based; details: immunoblotting of cell lysates
Procedure: (§5) Levels of iNOS, COX-II, and β-actin (control) were measured by immunoblotting with anti-iNOS antibody (Biomol), anti-COX-II antibody (Upstate), and anti-β-actin antibody (Chemicon), respectively. The cell lysates were subjected to SDS-PAGE and the separated proteins were electrophoretically transferred to nitrocellulose membranes. The membranes were incubated, respectively, with blocking solution for 1 h, primary antibody for 2 h, and secondary antibody for 1 h. Antigen-antibody complexes were detected using ECL detection reagents (Perkin Elmer, Western Blot Chemiluminescence Reagent Plus) according to the manufacturer's instructions.

COX-II = COX-II level by immunoblotting; assay type: cell-based; details: immunoblotting of cell lysates
Procedure: as §5

Compound: COc1cc2c3c[n+]4c(cc3c3cc(OC)c(OC)c(OC)c3c2cc1OC)CCC4 [Compound 1]
- inhibition of proliferation of HONE-1 cells [1]: inhibited
- inhibition of proliferation of NUGC-3 cells (NUGC-3 (gastric cancer)): inhibited

Compound: COc1cc2c3c(c4cc(OC)c(OC)c(OC)c4c2cc1OC)[C@H](O)[C@@H]1CCC[N+]1([O-])C3 (some centres unmarked) [Compound 4]
- inhibition of iNOS promoter activity (iNOS promoter): effectively inhibited
- inhibition of proliferation of HONE-1 cells [1]: inhibited
- inhibition of proliferation of NUGC-3 cells (NUGC-3 (gastric cancer)): inhibited

Compound: COc1cc2c3c(c4cc(OC)c(OC)cc4c2cc1OC)CN1CCC[C@H]1C3 [Compound 2]
- inhibition of iNOS promoter activity (iNOS promoter): effectively inhibited
- inhibition of AP 1 activity (AP1): inhibited
- inhibition of NF-κB activity, Compound 2 and another P13K/Akt inhibitor (NF-κB [2]; Compound 2 and LY294002 named together, LPS/IFNγ-treated RAW264.7 cells): significantly inhibited
- inhibition of NF-κB activity (NF-κB [2]; tested at 0.3, 1, 3, or 10 μM, LPS (10 μg/ml)/IFNγ (20 ng/ml), 5 h, serum-free medium): not
- inhibition of AP 1 activity in cells with over-expression of MEKK1 (AP 1): inhibited
- inhibition of pNF-κB activity in cells with over-expression of MEKK1 (NF-κB [3]): inhibited
- inhibition of MEKK1 activity or expression (MEKK1): inhibited
- phosphorylation of Akt (Akt): enhanced
- phosphorylation of ATF-2 (ATF-2): enhanced
- expression of c-Jun (c-Jun): inhibited
- inhibition of proliferation of HONE-1 cells [1]: inhibited
- inhibition of proliferation of NUGC-3 cells (NUGC-3 (gastric cancer)): inhibited
- inhibition of production of TNF α (TNF α): inhibited
- iNOS level (iNOS): lowered
- COX-II level (COX-II): lowered
